# Source: patent US20190313614A1, “MRAP2 KNOCKOUTS” (EFFSTOCK, LLC, priority 2013, published 2019)
# Assays:
# [1] = target: T1, Mc3r (Mus musculus, UniProt P33033); test: Effect of Mrap2 on Mc3r signaling: cAMP reporter (CRELuc) activity in transfected CHO cells; type: cell-based; settings: Mc3r+Mrap2 vs. Mc3r, at the two highest αMSH doses (0-10 nM, 5 h)
# T1 construct: expressed in transfected cells; host or cells: CHO cells
# Excerpt: FIG. 6A depicts graphs of food intake (left panel) and body weight (right panel) in female Mrap2^flox/flox vs. Sim1^Cre: Mrap2^flox/flox mice. Sim1^Cre::Mrap2^flox/flox mice were either ad libitum-fed or pair-fed starting at age 70 days (upward arrow) to ad libitum-fed Mrap2^flox/flox mice. […] FIG. 6B depicts graphs of body weights in mice with combined knockout of Mrap2 and Mc4r. Top panels: Body weights in mixed Mrap^+/−::Mc4r^+/− genotypes (male Mrap^+/−::Mc4r^+/−, n=10; Mrap^+/+::Mc4r^+/−, n=10; Mrap^+/−::Mc4r^+/+, n=8; Mrap^+/+::Mc4r^+/+, n=9; female Mrap^+/−: Mc4r^−/−, n=9; Mrap^+/+::Mc4r^−/−, n=12; Mrap^+/−::Mc4r^+/+, n=8; Mrap^+/+::Mc4r^+/+, n=8). Bottom panels: Body weights in mixed Mrap^−/−::Mc4r^−/− genotypes (male Mrap^−/−:Mc4r^−/−, n=9; Mrap^+/+::Mc4r^−/−, n=8; Mrap^−/−: Mc4r^+/+, n=8; Mrap^+/+::Mc4r^+/+, n=9; female Mrap^−/−::Mc4r^−/−, n=7; Mrap^+/+:::Mc4r^−/−, n=8; Mrap^−/−::Mc4r^+/+, n=9; Mrap^+/+:::Mc4r^+/+, n=8). *p<0.05, **p<0.001 by ANOVA. FIG. 6C depicts the results of co-immunoprecipitation assay between Mrap2 and Mc4r. Transfection into CHO cells of Myc-tagged Mrap2 and GFP-tagged Mc4r was followed by anti-Myc immunoprecipitation and anti-GFP immunoblotting. […] Right panel: cAMP activity of these same constructs, expressed as percent induction following 0-10 nM αMSH, relative to 0 nM αMSH. *p<0.0001, Mc3r+Mrap2 vs. Mc3r at same [αMSH], by ANOVA. […]
# [2] = target: T2, Mc4r (Mus musculus, UniProt P56450); test: Mc4r bioassay for Mrap2 effect: cAMP reporter (CRELuc) activity in transfected CHO cells; type: cell-based; settings: 0-10 nM αMSH, 5 h
# T2 construct: expressed in transfected cells; host or cells: CHO cells (ATCC), transient transfection with pRC/CMV constructs, pCRE-Luc and pRL-TK
# Excerpt: FIGS. 3A-3C depict the interaction between Mrap2 and Mc4r. […] Top right, Cre DNA analysis by PCR. […] Molecular weight marker (M) on right (bp). Top left, Mrap2 DNA analysis in Sim1^CreBAC::Mrap2^f/f and Mrap2^f/f mice by PCR. Both genotypes contain floxed, intact Mrap2 DNA in CX, HT, and BS (314 bp in upper electropherogram, and 1013 bp in lower electropherogram, molecular weight markers on left). Only Sim1^CreBAC::Mrap2^f/f mice contain Mrap2^Del (400 bp, lower electropherogram), and only in HT and BS, but not in CX, consistent with fluorescent reporter data. No PCR products are present without added DNA (H2O). Bottom, Mrap2 mRNA expression in Sim1^CreBAC::Mrap2^f/f and Mrap2^f/f mice by RT-PCR. Both genotypes express floxed, intact Mrap2 mRNA in CX, HT, and BS (247 bp). Only Sim1^CreBAC::Mrap2^f/f mice express Mrap2^Del mRNA (147 bp), and only in HT. Global Mrap2^Del/Del mice express Mrap2^Del mRNA in all 3 sites. FIG. 3B depicts graphs of body weights of Mrap2^+/+ (male n=6, female n=11), Mrap2^−/− (male n=11, female n=7), Mrap2^f/f (male n=8, female n=12) and conditional Sim1^CreBAC::Mrap2^f/f (male n=8, female n=7) mice, all age 133 days. *p=0.04, **p=0.007, ***p=0.0002, ****p<0.0001. FIG. 3C depicts graphs of the effect of Mrap2 on Mc4r signaling. Left panel: Level of cAMP reporter activity (CRELuc) in CHO cells alone, or co-transfected with Mc4r, with or without Mrap2 or the Mrap2 knockout construct, Mrap2delE3, 5 h following exposure to 0-10 nM αMSH (n=3/group). Right panel: cAMP activity of these same constructs, expressed as percent induction following 0-10 nM αMSH, relative to 0 nM αMSH. *p<0.0001, Mc4r+Mrap2 vs. Mc4r at same [αMSH], by ANOVA. For most data points, error bars are obscured by symbols.
# The coding sequences of mouse Mrap2 and Mc4r were isolated by PCR of brain cDNA (Mrap2) or genomic DNA (Mc4r) (Table S4), subcloned into TOPO-pCRII™ (Invitrogen, Carlsbad, Calif.), sequence-verified, and ligated into pRC/CMV (Invitrogen, Carlsbad, Calif.). Mrap2delE3, identical to the product of Mrap2^−/− mice, was also created and ligated into pRC/CMV. […]
# [3] = system: melanocortin receptor (Mc4r and Mc3r); test: Food intake following saline or MTII in Mrap2+/+ vs. Mrap2−/− mice; type: in vivo; settings: young (age 38-45 days) Mrap2−/− mice; 2 μg/g body weight, i.p.
# Excerpt: FIG. 5A depicts images of the appearance of male and female Mrap^+/+ and Mrap2^−/− mice. Left panel: External appearance on standard chow (age 175 days). Upper right: mesenteric fat in female Mrap^+/+ and Mrap2^−/− mice (age 175 days). Lower right: Brown adipose tissue (BAT) in female Mrap^+/+ and Mrap2^−/− mice (age 175 days). FIG. 5B depicts the level of serum leptin in Mrap2^+/+ and Mrap2^−/− mice. Left panel: Mrap2^+/+ vs. Mrap2^−/− ad libitum fed male (n=4 vs. 6) and female (n=8 vs. 4) mice (ages 302-349 days). Right panel: Mrap2^+/+ vs. Mrap2^−/− food-restricted, weight-matched male (n=4 vs. 6, weight=27.4±0.6 vs. 24.8±0.2 g), and female (n=4 vs. 6, weight=21.5±0.6 vs. 20.8±0.2 g) mice (ages 135-151 days). *p=0.005, **p<0.00001. FIG. 5C depicts the level of fasting serum insulin in Mrap2^+/+ and Mrap2^−/− male (n=4 vs. 6) and female (n=6 vs. 8) mice (ages 88-194 days). There was no significant difference between genotypes of either gender. FIG. 5D depicts the results of a glucose tolerance test (intraperitoneal) in Mrap2^+/+ and Mrap2^−/− male (n=4 vs. 6) and female (n=6 vs. 8) mice (ages 88-194 days). There was no significant difference between genotypes of either gender. FIG. 5E depicts levels of blood corticosterone in morning, evening, and following 30 minutes of restraint stress in Mrap2^+/+ and Mrap2^−/− male (n=4 vs. 3) and female (n=6 vs. 7) mice (ages 124-178 days). […]
# T2 sequence (P56450 whole entry): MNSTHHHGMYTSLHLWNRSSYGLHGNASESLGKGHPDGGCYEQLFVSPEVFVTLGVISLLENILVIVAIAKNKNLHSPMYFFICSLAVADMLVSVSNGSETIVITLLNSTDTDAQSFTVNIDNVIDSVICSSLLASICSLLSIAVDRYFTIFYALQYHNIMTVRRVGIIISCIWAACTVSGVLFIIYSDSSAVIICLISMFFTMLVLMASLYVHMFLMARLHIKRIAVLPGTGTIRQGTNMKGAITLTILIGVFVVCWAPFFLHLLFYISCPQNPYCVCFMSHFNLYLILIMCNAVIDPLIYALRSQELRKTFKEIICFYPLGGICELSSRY
# T1 sequence (P33033 whole entry): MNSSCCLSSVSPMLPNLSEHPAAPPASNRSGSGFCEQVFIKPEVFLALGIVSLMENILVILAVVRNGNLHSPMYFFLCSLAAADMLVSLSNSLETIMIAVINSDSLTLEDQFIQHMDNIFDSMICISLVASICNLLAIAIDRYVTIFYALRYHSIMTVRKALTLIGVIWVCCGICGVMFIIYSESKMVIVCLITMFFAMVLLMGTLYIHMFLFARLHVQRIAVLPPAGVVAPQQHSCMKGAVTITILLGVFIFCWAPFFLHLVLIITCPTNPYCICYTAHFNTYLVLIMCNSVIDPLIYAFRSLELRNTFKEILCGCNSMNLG
Substance,signaling through Mc3r (cAMP reporter activity) [1],"increase above basal PKA activity ([2]; CHO cells co-transfected with Mc4r and Mrap2, relative to 0 nM αMSH) [fold]",increase above basal PKA activity ([2]; CHO cells with Mc4r alone) [fold],increase above basal PKA activity ([2]; CHO cells with Mc4r plus the Mrap2 null construct Mrap2delE3) [fold],anorectic response (food intake) [3]
α-melanocyte stimulating hormone [αMSH],increased signaling,5,< 2,< 2,
"acetyl-(Nle^4, Asp^5, D-Phe^7, Lys^10)-cyclo-[…]-MSH (4-10) amide acetate salt [MTII]",,,,,intact anorectic response
